The record followed here is patent US20230087118A1, “IMIDAZO[1,2-a][sequence] DERIVATIVES AND THEIR USE IN THE TREATMENT OF DISEASE” (priority 2019, published 2023).

One test has as its target T1, IRAK4 (Homo sapiens, UniProt Q9NWZ3).
T1 sequence (Q9NWZ3 1-460): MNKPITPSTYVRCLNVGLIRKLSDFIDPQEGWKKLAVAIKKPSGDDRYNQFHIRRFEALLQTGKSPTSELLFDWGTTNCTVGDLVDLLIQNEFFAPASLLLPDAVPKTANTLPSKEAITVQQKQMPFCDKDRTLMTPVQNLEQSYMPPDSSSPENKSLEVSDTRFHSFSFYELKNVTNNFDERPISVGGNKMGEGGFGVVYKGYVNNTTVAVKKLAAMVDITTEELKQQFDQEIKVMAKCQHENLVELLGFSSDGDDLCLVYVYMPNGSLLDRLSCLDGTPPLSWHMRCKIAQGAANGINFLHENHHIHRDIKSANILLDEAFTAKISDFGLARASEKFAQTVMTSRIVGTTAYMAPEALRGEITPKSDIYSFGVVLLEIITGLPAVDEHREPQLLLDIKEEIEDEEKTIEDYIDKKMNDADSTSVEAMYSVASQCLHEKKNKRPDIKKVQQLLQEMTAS
Briefly: biochemical.
Conditions: not given
`Cn1nc(NC(=O)c2cn3cc(C45CCC(C)(C4)OC5)nc3cc2OC2CCC2)cc1F` (stereo not shown) [Example 419, 7-Cyclobutoxy-N-(5-fluoro-1-methyl-1H-pyrazol-3-yl)-2-(1-methyl-2-oxabicyclo[2.2.1]heptan-4-yl)imidazo[1,2-a]pyridine-6-carboxamide] showed an IC50 of 0.0033 µM.

In turn, `CCn1cccc(NC(=O)c2cn3cc(C45CCC(C)(CC4)OC5)nc3cc2OC2CCC2)c1=O` [Example 420, 7-Cyclobutoxy-N-(1-ethyl-2-oxo-1,2-dihydropyridin-3-yl)-2-(1-methyl-2-oxabicyclo[2.2.2]octan-4-yl)imidazo[1,2-a]pyridine-6-carboxamide] returned an IC50 of 0.0003 µM. On the same count and under the same terms, to `Cn1cccc(NC(=O)c2cn3cc(C45CCC(C)(CC4)OC5)nc3cc2OC2CCC2)c1=O` [Example 421, 7-Cyclobutoxy-N-(1-methyl-2-oxo-1,2-dihydropyridin-3-yl)-2-(1-methyl-2-oxabicyclo[2.2.2]octan-4-yl)imidazo[1,2-a]pyridine-6-carboxamide] belongs 0.0002 µM. In turn, `Cn1cccc(NC(=O)c2cn3cc(C45CCC(C)(C4)OC5)nc3cc2OC2CCC2)c1=O` (stereo not shown) [Example 422, 7-Cyclobutoxy-N-(1-methyl-2-oxo-1,2-dihydropyridin-3-yl)-2-(1-methyl-2-oxabicyclo[2.2.1]heptan-4-yl)imidazo[1,2-a]pyridine-6-carboxamide] came in with a 50% inhibitory concentration (IC50) of 0.0005 µM. The compound `CCOc1nc2nc(C34CCC(C)(CC3)OC4)cn2cc1C(=O)Nc1ccn(C)n1` [Example 423, 7-Ethoxy-N-(1-methyl-1H-pyrazol-3-yl)-2-(1-methyl-2-oxabicyclo[2.2.2]octan-4-yl)imidazo[1,2-a]pyrimidine-6-carboxamide] came in with an IC50 of 0.0054 µM. The compound `Cn1cccc(NC(=O)c2cn3cc(C45COC(C)(C4)C5)nc3cc2OC2CCC2)c1=O` [Example 424, 7-Cyclobutoxy-N-(1-methyl-2-oxo-1,2-dihydropyridin-3-yl)-2-(1-methyl-2-oxabicyclo[2.1.1]hexan-4-yl)imidazo[1,2-a]pyridine-6-carboxamide] came in with an IC50 of 0.0007 µM. Against the preceding compound, the IC50 is about 7.7-fold lower.

With `CC12CCC(c3cn4cc(C(=O)Nc5cnn6cccnc56)c(OC5CCC5)cc4n3)(CO1)C2` (stereo not shown) [Example 425, 7-Cyclobutoxy-2-(1-methyl-2-oxabicyclo[2.2.1]heptan-4-yl)-N-(pyrazolo[1,5-a]pyrimidin-3-yl)imidazo[1,2-a]pyridine-6-carboxamide], the midpoint of inhibition, the IC50, lay at 0.0004 µM.

In turn, `Cc1cnc2c(NC(=O)c3cn4cc(C56CCC(C)(C5)OC6)nc4cc3OC3CCC3)cnn2c1` (stereo not shown) [Example 426, 7-Cyclobutoxy-2-(1-methyl-2-oxabicyclo[2.2.1]heptan-4-yl)-N-(6-methylpyrazolo[1,5-a]pyrimidin-3-yl)imidazo[1,2-a]pyridine-6-carboxamide] yielded an IC50 of 0.0003 µM. On the same count and under the same terms, to `CC(C)Oc1nc(C(=O)Nc2cccn(C)c2=O)cn2cc(C34CCC(C)(CC3)OC4)nc12` [Example 427, 8-Isopropoxy-N-(1-methyl-2-oxo-1,2-dihydropyridin-3-yl)-2-(1-methyl-2-oxabicyclo[2.2.2]octan-4-yl)imidazo[1,2-a]pyrazine-6-carboxamide] belongs 0.0007 µM; to `CC(C)Oc1nc(C(=O)Nc2cnn3cccnc23)cn2cc(C34CCC(C)(CC3)OC4)nc12` [Example 428, 8-Isopropoxy-2-(1-methyl-2-oxabicyclo[2.2.2]octan-4-yl)-N-(pyrazolo[1,5-a]pyrimidin-3-yl)imidazo[1,2-a]pyrazine-6-carboxamide], 0.0016 µM. On to `CC(C)Oc1nc(C(=O)Nc2ccn(C)n2)cn2cc(C34CCC(C)(CC3)OC4)nc12` [Example 429, 8-Isopropoxy-N-(1-methyl-1H-pyrazol-3-yl)-2-(1-methyl-2-oxabicyclo[2.2.2]octan-4-yl)imidazo[1,2-a]pyrazine-6-carboxamide], for which half-maximal inhibition (IC50) was put at 0.0018 µM. On to `CC(C)Oc1nc2nc(C34COC(C3)C4)cn2cc1C(=O)Nc1cnn2cccnc12` [Example 430, 2-(2-Oxabicyclo[2.1.1]hexan-4-yl)-7-isopropoxy-N-(pyrazolo[1,5-a]pyrimidin-3-yl)imidazo[1,2-a]pyrimidine-6-carboxamide], for which half-maximal inhibition (IC50) was put at 0.0027 µM.

In turn, `CC(C)Oc1nc2nc(C34CCC(C)(CC3)OC4)cn2cc1C(=O)Nc1cnn2cccnc12` [Example 431] gave an IC50 of 0.0008 µM. The same measure, in the same setting: as for `Cc1cnc2c(NC(=O)c3cn4cc(C56COC(C5)C6)nc4nc3OC(C)C)cnn2c1` [Example 432], the figure is 0.0006 µM; as for `Cc1cnc2c(NC(=O)c3cn4cc(C56CCC(C5)OC6)nc4nc3OC(C)C)cnn2c1` (stereo not shown) [Example 433], 0.0006 µM. Same read-out and setting: to `Cc1cnc2c(NC(=O)c3cn4cc(C56COC(CF)(C5)C6)nc4nc3OC(C)C)cnn2c1` [Example 434] belongs 0.0005 µM.

With `COc1cccc(NC(=O)c2cn3cc(C4CCOCC4)nc3cc2OCCC2CCOC2)n1` (stereo not shown) [Example 435, N-(6-methoxypyridin-2-yl)-2-(tetrahydro-2H-pyran-4-yl)-7-(2-(tetrahydrofuran-3-yl)ethoxy)imidazo[1,2-a]pyridine-6-carboxamide], the IC50 worked out at 0.0051 µM.

As for `CCO[C@H]1C[C@@H](Oc2cc3nc(C4CCOCC4)cn3cc2C(=O)Nc2cccc(C(F)F)n2)C1` [Example 436, N-(6-(difluoromethyl)pyridin-2-yl)-7-((1s,3s)-3-ethoxycyclobutoxy)-2-(tetrahydro-2H-pyran-4-yl)imidazo[1,2-a]pyridine-6-carboxamide], the IC50 is 0.0008 µM. The same measure, in the same setting: to `Cn1ccc(NC(=O)c2cn3cc(C45COC(C)(C4)C5)nc3cc2OC2CCC2)n1` [Example 437, 7-Cyclobutoxy-N-(1-methyl-1H-pyrazol-3-yl)-2-(1-methyl-2-oxabicyclo[2.1.1]hexan-4-yl)imidazo[1,2-a]pyridine-6-carboxamide] belongs 0.0017 µM. Turning to `CC12CC(c3cn4cc(C(=O)Nc5cccn(C(F)F)c5=O)c(OCCF)cc4n3)(CO1)C2` [Example 438, N-(1-(difluoromethyl)-2-oxo-1,2-dihydropyridin-3-yl)-7-(2-fluoroethoxy)-2-(1-methyl-2-oxabicyclo[2.1.1]hexan-4-yl)imidazo[1,2-a]pyridine-6-carboxamide], the IC50 was 0.0015 µM.

`CC12CC(c3cn4cc(C(=O)Nc5cccn(C(F)F)c5=O)c(OC5CCC5(C)C)cc4n3)(CO1)C2` (stereo not shown) [Example 439, N-(1-(difluoromethyl)-2-oxo-1,2-dihydropyridin-3-yl)-7-(2,2-dimethylcyclobutoxy)-2-(1-methyl-2-oxabicyclo[2.1.1]hexan-4-yl)imidazo[1,2-a]pyridine-6-carboxamide]: the IC50 came to 0.0028 µM. The same measure, in the same setting: as for `Cn1ccc(NC(=O)c2cn3cc(C45COC(C)(C4)C5)nc3cc2OC2CC(C)(C)C2)n1` [Example 440, 7-(3,3-Dimethylcyclobutoxy)-N-(1-methyl-1H-pyrazol-3-yl)-2-(1-methyl-2-oxabicyclo[2.1.1]hexan-4-yl)imidazo[1,2-a]pyridine-6-carboxamide], the figure is 0.0043 µM; as for `CC12CC(c3cn4cc(C(=O)Nc5cccn(C(F)F)c5=O)c(OC5COC5)cc4n3)(CO1)C2` [Example 441, N-(1-(difluoromethyl)-2-oxo-1,2-dihydropyridin-3-yl)-2-(1-methyl-2-oxabicyclo[2.1.1]hexan-4-yl)-7-(oxetan-3-yloxy)imidazo[1,2-a]pyridine-6-carboxamide], 0.0034 µM; as for `CC12CC(c3cn4cc(C(=O)Nc5cccn(C(F)F)c5=O)c(OC5CCC5)cc4n3)(CO1)C2` [Example 442, 7-Cyclobutoxy-N-(1-(difluoromethyl)-2-oxo-1,2-dihydropyridin-3-yl)-2-(1-methyl-2-oxabicyclo[2.1.1]hexan-4-yl)imidazo[1,2-a]pyridine-6-carboxamide], 0.0002 µM. The same measure, in the same setting: as for `CC12CC(c3cn4cc(C(=O)Nc5cccn(C(F)F)c5=O)c(OC5CCOC5)cc4n3)(CO1)C2` (stereo not shown) [Example 443, N-(1-(difluoromethyl)-2-oxo-1,2-dihydropyridin-3-yl)-2-(1-methyl-2-oxabicyclo[2.1.1]hexan-4-yl)-7-((tetrahydrofuran-3-yl)oxy)imidazo[1,2-a]pyridine-6-carboxamide], the figure is 0.0017 µM; as for `CC1(C)CC(Oc2cc3nc(C45COC(C)(C4)C5)cn3cc2C(=O)Nc2cccn(C(F)F)c2=O)C1` [Example 445, N-(1-(difluoromethyl)-2-oxo-1,2-dihydropyridin-3-yl)-7-(3,3-dimethylcyclobutoxy)-2-(1-methyl-2-oxabicyclo[2.1.1]hexan-4-yl)imidazo[1,2-a]pyridine-6-carboxamide], 0.0006 µM; as for `CC12CC(c3cn4cc(C(=O)Nc5cccn(C(F)F)c5=O)c(OCCOC(F)F)cc4n3)(CO1)C2` [Example 446, 7-(2-(Difluoromethoxy)ethoxy)-N-(1-(difluoromethyl)-2-oxo-1,2-dihydropyridin-3-yl)-2-(1-methyl-2-oxabicyclo[2.1.1]hexan-4-yl)imidazo[1,2-a]pyridine-6-carboxamide], 0.0046 µM.

Still in this test, the particulars now being: IRAK4 Biochemical Assay (1 mM ATP, 2 h) IC50 (μM), 1 mM ATP, 2 h, 100 pM IRAK4.
Compound `CC1(COc2cc3nc(C45COC(C)(C4)C5)cn3cc2C(=O)Nc2cccn(C(F)F)c2=O)CCOC1` (stereo not shown) [Example 444, N-(1-(difluoromethyl)-2-oxo-1,2-dihydropyridin-3-yl)-2-(1-methyl-2-oxabicyclo[2.1.1]hexan-4-yl)-7-((3-methyltetrahydrofuran-3-yl)methoxy)imidazo[1,2-a]pyridine-6-carboxamide] displayed an IC50 of 0.0042 µM. This lies in the single-digit nanomolar range.
